Measurements reported in patent US5206254A, “β-carbonyl-carboxyamides of 1,3-thiazolidines” (Boehringer Mannheim Italia S.p.A., priority 1988, dated 1993).
Where a name gives a salt, the structure may show the parent alone.

What was measured:
cough strokes = assay: Long lasting persistence of the antitussive action; type: in vivo, guinea pig; details: 30 mg/Kg os
Source text: (§1) Cough strokes are provoked by electrical stimulation of the guinea pig tracheal mucosa. according to Cavanaugh et al., (Arch. Ing. Pharmacodyn., 220, 258, 1976). Cough strokes are stimulated both before (i.e. in the absence of drug treatment) and one hour after the drug administration. […] A group of six animals is used at each dose level; this test is particularly useful for the evaluation of long lasting effects until and after three hours from the administration.
The results showing the long lasting persistance of the antitussive action is reported in Table 3 in comparison with codeine phosphate; all the substances are administered at 30 mg/Kg by oral route.

[1] = tested on: airways hyperreactivity, pulmonary inflation pressure (PIP); assay: Airway hyperreactivity (PIP increase after autacoid challenge) after tobacco smoke exposure; type: in vivo, guinea pig (male); details: for prevention/inhibition of airway hyperreactivity (words): compounds: oral 20-60, i.v. 0.25-5, s.c. 2-15 mg/Kg, 6 MPHE 10-50 mg/Kg i.m., DSCG 20-100 mg/Kg i.m., salbutamol 0.5 mg/Kg i.v.
Experimental: In order to show this surprising pharmacological property, the compounds of the invention were tested in a bronchial hyperreactivity animal model recently developed (see Omini C. et al., 23rd Ann. Med: S.E.P.C.R., Athens 20-24th June 1988, Abstract 15S Eur. J. Resp. Dis. in press).
The airways hyperreactivity is measured as abnormal increase of the pulmonary inflation pressure (PIP) caused by the exacerbate bronchconstrictive response that follows to an autocoid challenge after active forced tobacco smoke exposure for a 10 minutes period. The abnormal PIP increase is compared with the PIP increase observed, in the same animal, before tobacco smoke, and after autacoids challenge. Male guinea pigs (400-450 g b.w.) anaesthetized with ethylurethane and pancuronium bromide were used; the recording of PIP is performed in accordance with Konzett and Rossler methods (Naumm. Schiedeberg Arch. Exp. Path/Pharmacol. 195, 71, 1940). To evidentiate such bronchial smooth muscle hyperreactivity suitable autocoids are acetylcholine, histamine, serotonine, bradykinins.
Male guinea pigs (400-450 g) are anaesthetized with ethylurethane (i.p.) and pancuronium bromide (i.v.): the trachea is cannulated and the lungs are ventilated at constant volume by connection with "Rodent respirator" Basile apparatus mod. 7025. The pulmonary inflation pressure (PIP) is measured by connection to a side-warm of the tracheal cannula of a Bell and Howell pressure transducer (mod. P 17570) that is connected to a Beckmann (mod. R 611) dynograph. The right jugular vein is catheterized for i.v. injection of autacoids and drugs. The pharmacological experiment starts with the treatment of the animal with the autocoids (for example acetylcholine by i.v. route in the interval 2.5-10 mcg/kg) in order to induce a reversible bronchoconstruction response, measured by an increase of the pulmonary inflation pressure (PIP). This increase is recorded and it is considered to represent the basal value of the animal bronochoconstrictor response to the challenge with the autocoid.
The animal is then actively exposed for a 10 minutes time period to the tobacco smoke of alighted cigarette (directly inspired by the animal). Afterwards the animal is challenged again with the autocoid, using the dosage previously injected for evokating the basal bronchoconstrictor response. The novel challenge induces an exacerbate bronochoconstrictory response and the airway hyper-reactivity is measured as the differential increase in the PIP after tobacco smoke exposure in respect to the basal value. The challenge may be repeated in the time, (2-3 hours after smoke exposure, too) until reproducible hyper-reactive responses are obtained or at different time from tobacco exposure.
(§2) A substance may be administered by i.v., oral, subcutaneous or intramuscular route at different times before tobacco smoke exposure. A compound is considered effective when it is able to prevent almost completely the exacerbate differential increase in the PIP and normalize the BAL cell cytologic pattern at the same dose level.
Differential increases of the pulmonary inflation pressure over the basal value after autacoid challenges, ranging from 150-200% are observed after smoke exposure in the animal control group (i.e. in the absence of any pharmacological treatment).
Drug treatment may be performed using different routes: intravenous, oral, subcutaneous and/or intramuscular; the substances may be administered at different times before smoke exposure and at different dose levels.
Dose related responses have been determined for reference drugs such as 6β-methyl-prednisolone-21-hemisuccinate sodium salt (6MPHE, by i.m. route, 7 hrs. b.s.l.), sodium dichromoglycate (DSCG, by i.m. route, 2 hrs. b.s.e.) and salbutamol (by i.v. route, 20 minutes before smoke exposure); the results reported in table 4, are expressed as % protection from hyperreactive reaction. […]

[2] = Acute toxicity (LD50) in rats, oral; details: rat, in vivo, 14th day of observation, read-out: DL50
Experimental: The compounds of the invention are therapeutically useful substances, practically free of acute, subacute or chronic toxic effects. LD50 values, usually exceeding 1 g/kg body weight are measured in mice and in rats after oral and intraperitoneal (i.p.) administration of the compounds of the invention. Only N-diethylaminoethylamino, N'-[(R,S)-2-(2-methoxyphenoxymethyl)-1,3-thiazolidine]-malondiamide and N-β-pyridylmethylamino-N'-[(R,S)-2-(2-methoxy-phenoxy-methyl)-1,3-thiazolidine]-malondiamide show DL50 values of 0.25 and 0.85 g/Kg respectively after oral administration to rats at the 14th day of observation.

[3] = tested on: cough strokes provoked by electrical stimulation of the guinea pig tracheal mucosa; assay: Electrically stimulated cough stroke test (Cavanaugh et al.); type: in vivo; details: for Percent reduction of cough strokes: 15 mg/kg os, one hour after drug
Source text: Table 2 refers to results with the compounds of formula (I) in the electrically stimulated cough stroke test, in comparison with codeine phosphate.
as §1

[4] = tested on: cytologic pattern of BAL fluids; assay: Cytology of bronchoalveolar lavage (BAL) fluids after tobacco smoke exposure; type: in vivo, guinea pig (male); details: smoke-exposed animals; 6 MPHE 50 mg/Kg, DSCG 100 mg/Kg, salbutamol 0.5 mg/Kg
Source text: Cytologic studies of the bronochoalveolar lavage (BAL) fluids of the animals, exposed to tobacco smoke and untreated with drugs, show a statistically significant increase of the overall cell counts. Specifically, the number of epithelial cells and of eosinophils is increased, in respect to the cell content of unexposed animals.
At the end of the experiment and/or at a desired time after smoke exposure, the animal is disconnected, and the broncho-alveolar contents are examined by lavages, injecting in the trachea physiological […] solutions (10 ml×3 times). These BAL fluids are combined, centrifuged for 15 minutes at 150 g to give pellets that are suspended in physiological saline (1 ml). The total cell number of BAL fluid is counted in a Burcher camera.
Differential cell counts are made from centrifugated preparations stained with Diff-Quick® counting at least 300 cells for each sample and the % number of epithelial cells, eosinophils, neutrophils, lymphocytes and macrophages are determined.
as §2

[5] = tested on: cough strokes, evokated by the two experimental models; assay: In vivo experiments with naloxone in the two cough models; set-up: species or system guinea pig

With `COc1ccccc1OCC1SCCN1C(=O)CC(=O)NCc1cccnc1` (stereo not shown) the “Percentage reduction of cough strokes during treatment, 1 h” value (“Percentage reduction … 1 h” for short) (cough strokes) was 80%, the “Percentage reduction of cough strokes during treatment, 2 h” value (shortened to “Percentage reduction … 2 h”) (cough strokes) was 67% and the “Percentage reduction of cough strokes during treatment, 3 h” value (“Percentage reduction … 3 h” below) (cough strokes) was 60%.

With `COc1ccccc1OCC1SCCN1C(=O)CC(=O)O` (racemic) [Compound 10, (R,S)-2-(2-methoxy-phenoxymethyl)-3-carboxyacetyl-1,3-thiazolidine] the “prevention/inhibition of airway hyperreactivity (words)” value (from here on “prevention/inhibition”) [1] was “effective inhibitors of the hyperreactive reaction”.

With `CNC(=O)CC(=O)N1CCSC1COc1ccccc1OC` (racemic) [Compound 11, N-methylamino-N-[(R,S)-2-(2-methoxy-phenoxymethyl)-1,3-thiazolidine]-malondiamide] the “Percentage reduction … 1 h” value (cough strokes) was 24%, the “Percentage reduction … 2 h” value (cough strokes) was 48% and the “Percentage reduction … 3 h” value (cough strokes) was 60%.

`CCN(CC)CCNC(=O)CC(=O)N1CCSC1COc1ccccc1OC` (racemic) [Example 14, N-(diethylaminoethyl), N'-[(R,S)-2-(2-methoxy-phenoxymethyl)-1,3-thiazolidine]-malondiamide] gave an LD50 at 336 h [2] of 250 mg/kg.

In the case of `COc1ccccc1OCC1SCCN1C(=O)CC(=O)NCc1cccnc1` (racemic) [Table 5 3, N-β-pyridylmethyl, N'-[(R,S)-2-(2-methoxy-phenoxymethyl)-1,3-thiazolidine]-malondiamide], the “prevention/inhibition” value [1] is reported as “effective inhibitors of the hyperreactive reaction” and the LD50 at 336 h [2] is reported as 850 mg/kg.

For `COc1ccc2c3c1O[C@H]1[C@@H](O)C=C[C@H]4[C@@H](C2)N(C)CC[C@@]341` [Codeine phosphate, reference compound], the “Percent reduction of cough strokes” value [3] was 58%, the “Percentage reduction … 1 h” value (cough strokes) was 77% and the “Percentage reduction … 2 h” value (cough strokes) was 53%. The “Percentage reduction … 3 h” value (cough strokes) was 46%.

For `C[C@H]1C[C@@H]2[C@H]([C@@H](O)C[C@@]3(C)[C@H]2CC[C@]3(O)C(=O)COC(=O)CCC(=O)O)[C@@]2(C)C=CC(=O)C=C12` [Compound 6MPHE, 6α-methyl-prednisolone-21-hemisuccinatesodium salt], the “% protection from hyperreactive reaction” value ([1]; 6MPHE 10 mg/kg i.m., 7 hrs before smoke exposure) was 65%, the “% protection from hyperreactive reaction” value ([1]; 6MPHE 25 mg/kg i.m., 7 hrs before smoke exposure) was 85% and the “% protection from hyperreactive reaction” value ([1]; 6MPHE 50 mg/kg i.m., 7 hrs before smoke exposure) was 100%. The “prevention/inhibition” value [1] was “preventing airway hyperreactivity”, the “prevention/inhibition” value ([1]; listed as 6α-methyl-prednisolone- 21-hemisuccinatesodium salt (6 MPHE)) was “effective” and the “normalization of BAL fluid cytology” value [4] was “able to normalize the cellular pattern in the BAL fluids”.

In the case of `O=C(O)c1cc(=O)c2c(OCC(O)COc3cccc4oc(C(=O)O)cc(=O)c34)cccc2o1` [DSCG], the “% protection from hyperreactive reaction” value ([1]; DSCG 25 mg/kg i.m., 2 hrs before smoke exposure) is reported as 27%, the “% protection from hyperreactive reaction” value ([1]; DSCG 50 mg/kg i.m., 2 hrs before smoke exposure) is reported as 64% and the “% protection from hyperreactive reaction” value ([1]; DSCG 100 mg/kg i.m., 2 hrs before smoke exposure) is reported as 100%. For the same compound, the “prevention/inhibition” value [1] was “preventing airway hyperreactivity”, the “prevention/inhibition” value ([1]; listed as Dichromoglycate (DSCG)) was “effective” and the “normalization of BAL fluid cytology” value [4] was “able to normalize the cellular pattern in the BAL fluids”.

With `CC(C)(C)NCC(O)c1ccc(O)c(CO)c1` (stereo not shown) [Salbutamol] the “% protection from hyperreactive reaction” value ([1]; Salbutamol 5 mg/kg i.v., 20 minutes before smoke exposure) was 90%, the “prevention/inhibition” value [1] was “effective” and the “normalization of BAL fluid cytology” value [4] was “fails to modify the smoke induced pathological changes of the BAL fluid cytology”.

For `C=CCN1CC[C@]23c4c5ccc(O)c4O[C@H]2C(=O)CC[C@@]3(O)[C@H]1C5` [naloxone, reference compound], the “protection against cough strokes by naloxone alone” value ([5]; 5 mg/kg s.c., both experimental models) was “unable to protect guinea pig against cough strokes”.

With “(+)-[2-(2-methoxyphenoxymethyl)-3-ethoxycarbonyl]-1,3-thiazolidine [Compound 8]” the “Percent reduction of cough strokes” value [3] was 63% and the ED50 ([3]; os, electrical stimulation (Table II)) was 12 mg/kg.

For “(R,S)-2-(2-methoxy-phenoxymethyl)-3-(3-oxo-butanoyl)-1,3-thiazolidine [Compound 6]”, the “Percent reduction of cough strokes” value [3] was 14%.

With “(R,S)-2-(2-methoxy-phenoxymethyl)-3-ethoxycarbonylacetyl-1,3-thiazolidine [Compound 7]” the “Percent reduction of cough strokes” value [3] was 18%, the “Percentage reduction … 1 h” value (cough strokes) was 70% and the “Percentage reduction … 2 h” value (cough strokes) was 60%. The “Percentage reduction … 3 h” value (cough strokes) was 40%, the “protective effect after naloxone pretreatment” value ([5]; naloxone 5 mg/Kg s.c. pretreatment, substance 30 mg/Kg os) was “complete protection against cough strokes” and the “prevention/inhibition” value ([1]; listed as (R,S)-2-(2-methoxyphenoxymethyl)-3-ethoxycarbonylacetyl-1,3-thiazolidine) was “highly effective”. For the same compound, the “prevention/inhibition” value ([1]; listed as (R,S)-2-[2-methoxy-phenoxymethyl)-3-ethoxycarbonylacetyl-1,3-thiazolidine) was “effective inhibitors of the hyperreactive reaction”.
